Test results taken from patent US8071604B2, “Thio-substituted arylmethanesulfinyl derivatives” (Cephalon France, priority 2007, dated 2011).

What was measured:
rats = assay: Evaluation of wake promoting activity in rats (EEG/EMG sleep/wake scoring); type: in vivo, rat (adult male Wistar); conditions: i.p. route, 100 mg/kg dose; for Mean AUC0-3 h values, Test compound Mean: n = 8 rats per test compound, time awake in first 3 hrs following dosing; for wakefulness as compared to vehicle-treated control groups: rats, p<0.05 vs vehicle
Description: Methodology: Evaluation of Wake Promoting Activity in Rats
The methodology utilized for evaluating wake promoting activity of test compounds is based on that described by Edgar and Seidel, Journal of Pharmacology and Experimental Therapeutics, 283:757-769, 1997, and incorporated herein in its entirety by reference.
Animal Surgery. Adult, male Wistar rats (275-320 g from Charles River Laboratories, Wilmington, Mass.) were anesthetized (Nembutal, 45 mg/kg, ip.) and surgically prepared with implants for recording of chronic EEG (encephalographic) and EMG (electromyographic) recording. The EEG implants were made from commercially available components (Plastics One, Roanoke, Va.). EEG signals were recorded from stainless steel screw electrodes: 2 frontal (+3.0 mm AP from bregma, ±2.0 mm ML), and 2 occipital (−4.0 mm AP from bregma, ±2.0 mm ML). Two Teflon-coated stainless steel wires were positioned under the nuchal trapezoid muscles for EMG recording. All electrode leads were inserted into a connector pedestal and the pedestal affixed to the skull by application dental acrylic. Antibiotic was administered post surgically and antibiotic cream was applied to the wound edges to prevent infection. At least one week elapsed between surgery and recording.
Recording environment. Postsurgically, rats were housed in pairs in an isolated room. Food and water were available ad libitum, ambient temperature was 21° C., and humidity was 55%. At least 24 hrs prior to recording, they were placed in Nalgene containers (31×31×31 cm) with a wire-grid top, and entry to the room was prohibited during the day of recording except for dosing. The containers were placed on a rack with two shelves, 4 containers per shelf. Fluorescent overhead room lights were set to a 24 hr. light/dark cycle (on at 7 AM, off at 7 PM). Light levels inside the containers were 38 and 25 lux for the top and bottom shelves respectively. Background white-noise (68 db inside the containers) was present in the room to mask ambient sounds.
Data acquisition. EEG and EMG signals were led via cables to a commutator (Plastics One) and then to pre-amplifiers (model 1700, A-M Systems, Carlsborg, Wash.). EEG and EMG signals were amplified (10K and 1K respectively) and bandpass filtered between 0.3 and 500 Hz for EEG and between 10 and 500 Hz for EMG. […] On the day of dosing, data was recorded for 6 to 10 hours beginning at 11 AM.
Drug administration and study design. Compounds were evaluated on groups of from 4 to 8 rats carried out over one or two separate test sessions. […]
Sleep/wake scoring. Sleep and wake activity were determined manually using ICELUS software. […]

Row | Compound | Mean AUC0-3 h values, Test compound Mean (rats) | wakefulness as compared to vehicle-treated control groups (rats) | melting point [°C]
1 | NC(=O)C[S+]([O-])Cc1ccccc1NC(=O)c1ccc(Cl)cc1 (centres unmarked) [Example 113, N-(2-Carbamoylmethanesulfinylmethyl-phenyl)-4-chloro-benzamide] | 99.0 % of waiking time × hr | significantly greated wakefulness | –
2 | NC(=O)C[S+]([O-])Cc1ccccc1COc1ccccc1 (centres unmarked) | – | – | 153 to 154
3 | CC(=O)N1CCN(C(=O)C[S+]([O-])Cc2ccc(Oc3ccc(Cl)c(Cl)c3)cc2)CC1 (centres unmarked) [Example 22, 1-(4-Acetyl-piperazin-1-yl)-2-[4-(3,4-dichloro-phenoxy)-phenylmethanesulfinyl]-ethanone] | 162.7 % of waiking time × hr | significantly greated wakefulness | –
